Assay results: article PMC8305974, “Novel Hybrid Compounds Containing Benzofuroxan and Aminothiazole Scaffolds: Synthesis and Evaluation of Their Anticancer Activity” (International Journal of Molecular Sciences, 2021)
Read-outs that look alike come from different tables or passages of the source.

Key:
M-HeLa [1] = test: Cytotoxicity assay (Cytell Cell Imaging, Cell Viability Bio App); details: read-out: Cytotoxic effects (IC50) M-HeLa; cancer cell line M-HeLa; tested at 1–100 μM; mean ± SD, three repeats
PANC-1 [2] = test: as above; details: read-out: Cytotoxic effects (IC50) PANC-1; cancer cell line PANC-1; tested at 1–100 μM; mean ± SD, three repeats
in vitro = details: human
HuTu 80 [3] = test: Cytotoxicity assay (Cytell Cell Imaging, Cell Viability Bio App); details: read-out: Cytotoxic effects (IC50) HuTu 80; cancer cell line HuTu 80; tested at 1–100 μM; mean ± SD, three repeats
PANC-1 [4] = details: human
HuTu 80 [5] = details: human
M-HeLa [6] = details: for IC50: human
M-HeLa cells = test: Cell apoptosis analysis by flow cytometry (annexin V-FITC / propidium iodide); assay type: cell-based, human; details: 24 h
Procedure: Cell Culture. M-HeLa cells at 1 × 10^6 cells/well in a final volume of 2 mL were seeded into 6-well plates. After 24 h of incubation, various concentrations of Compounds 2f and 3f were added to wells.
Cell Apoptosis Analysis. The cells were harvested at 2000 rpm for 5 min and, then, washed twice with ice-cold PBS, followed by resuspension in binding buffer. Next, the samples were incubated with 5 μL of annexin V-FITC and 5 μL of propidium iodide for 15 min at room temperature in the dark. Finally, the cells were analyzed by flow cytometry (Guava easy Cyte, MERCK, Kenilworth Union County, NJ, USA). The experiments were repeated three times.

M-HeLa cell lines = test: Cell cycle analysis by flow cytometry (propidium iodide); assay type: cell-based, human; details: 24 h, control 68.1
Procedure: Cell cycle analysis by quantification of DNA content is a reliable method to investigate which phase cell cycle has been arrested, wherein propidium iodide dye is used which binds in proportion to the amount of DNA present in the cell. […] The results reveal that 3f caused an increase in % of G1 arrest. Compound 3f was on 81.4% and 83.8% at 50 and 100 µM, respectively, which is more than control cells (68.1%) (Figure 9).
The DNA content and cell-cycle distribution after genistein treatment were estimated by flow cytometry. Cell seeding, drug treatment and ethanol fixation were similar to cell proliferation assay. After washing with PBS, genistein and daidzein-treated and -fixed cells were suspended in 150 μL of PBS, then 0.5 mL phosphate-citrate buffer (0.05 M, pH 4.0) was added and the suspension was incubated at room temperature for 5 min to facilitate the extraction of low-molecular-weight DNA. Following centrifugation, the cells were resuspended in 150 μL DNA staining solution (20 μg/mL propidium iodide, 200 μg/mL […], and 0.1% Triton X-100) and incubated in the CO2 incubator (37 °C for 30 min). Cell cycle distribution was determined by fluorescence-activated cell sorting analysis of propidium iodide-stained ethanol-fixed cells using a Guava EasyCyte (Guava easy Cyte, MERCK, Kenilworth Union County, NJ, USA).

[7] = Chang Liver cells (normal liver cell line)

IC50 (in vitro; [7]) [µM] | SMILES | IC50 (M-HeLa [1]) [µM] | IC50 (PANC-1 [2]) [µM] | IC50 (HuTu 80 [3]) [µM] | IC50 (PANC-1 [4]) [µM] | IC50 (in vitro) [µM] | IC50 (HuTu 80 [5]) [µM] | IC50 (M-HeLa [6]) [µM] | further results
95.4 ± 8.7 | CCOC(=O)c1csc(N)n1 [Compound 2c] | 63.3 ± 5.7 | > 100 | > 100 | – | – | – | – | –
– | CCOC(=O)c1cnc(Nc2c([N+](=O)[O-])cc([N+](=O)[O-])c3no[n+]([O-])c23)s1 [Compound 3c, 7-(5-(ethoxycarbonyl)thiazol-2-ylamino)-4,6-dinitrobenzo[c][1,2,5]oxadiazole 1-oxide] | – | – | – | > 100 | 100 ± 9.4 | > 100 | 95.8 ± 8.4 | –
72.4 ± 6.5 | O=c1[nH]cc(F)c(=O)[nH]1 [5-Fluorouracil, reference compound] | 62 ± 4.9 | 68.3 ± 5.7 | 65.2 ± 5.5 | – | – | – | – | –
> 100 | Cc1cnc(Nc2ccccc2)s1 [Compound 2e] | 92 ± 8.2 | > 100 | > 100 | – | – | – | – | –
– | Nc1nccs1 [Compound 2a] | – | – | – | > 100 | > 100 | > 100 | 91 ± 8.3 | –
> 100 | Cc1cnc(N)s1 [Compound 2b] | 92 ± 7.9 | > 100 | > 100 | – | – | – | – | –
– | Cc1cnc(N(c2ccccc2)c2c([N+](=O)[O-])cc([N+](=O)[O-])c3no[n+]([O-])c23)s1 [Compound 3e, 7-((5-methylthiazol-2-yl)(phenyl)amino)-4,6-dinitrobenzo[c][1,2,5]oxadiazole 1-oxide] | – | – | – | > 100 | 85.8 ± 7.4 | > 100 | 79 ± 6.3 | –
– | Cc1cnc(Nc2c([N+](=O)[O-])cc([N+](=O)[O-])c3no[n+]([O-])c23)s1 [Compound 3b, 7-(5-methylthiazol-2-ylamino)-4,6-dinitrobenzo[c][1,2,5]oxadiazole 1-oxide] | – | – | – | > 100 | > 100 | > 100 | 70 ± 6.2 | –
> 100 | COc1ccc(Nc2nccs2)cc1 [Compound 2f] | 93.8 ± 8.4 | > 100 | > 100 | – | – | – | – | –
– | O=[N+]([O-])c1cc([N+](=O)[O-])c2no[n+]([O-])c2c1N(c1ccccc1)c1nccs1 [Compound 3d, 4,6-dinitro-7-(phenyl(thiazol-2-yl)amino)benzo[c][1,2,5]oxadiazole 1-oxide] | – | – | – | > 100 | 86.1 ± 7.8 | > 100 | 61 ± 5.6 | Toxicity in words, normal cells (Chang Liver) (Chang Liver): not toxic; Cytotoxicity in words, M-HeLa (M-HeLa [6]): moderate cytotoxicity
– | O=[N+]([O-])c1cc([N+](=O)[O-])c2no[n+]([O-])c2c1Nc1nccs1 [Compound 3a, 4,6-dinitro-7-(thiazol-2-ylamino)benzo[c][1,2,5]oxadiazole 1-oxide] | – | – | – | > 100 | > 100 | > 100 | 61 ± 5.4 | Toxicity in words, normal cells (Chang Liver) (Chang Liver): not toxic; Cytotoxicity in words, M-HeLa (M-HeLa [6]): moderate cytotoxicity
– | COc1ccc(N(c2nccs2)c2c([N+](=O)[O-])cc([N+](=O)[O-])c3no[n+]([O-])c23)cc1 [Compound 3f, 7-((4-methoxyphenyl)(thiazol-2-yl)amino)-4,6-dinitrobenzo[c][1,2,5]oxadiazole 1-oxide] | – | – | – | > 100 | > 100 | > 100 | 56.6 ± 4.7 | Early apoptotic cells (Ea) (M-HeLa cells; 50 µM): 10.73%; Early apoptotic cells (Ea) (M-HeLa cells; 100 µM): 17.29%; Toxicity in words, normal cells (Chang Liver) (Chang Liver): not toxic; Cytotoxicity in words, M-HeLa (M-HeLa [6]): moderate cytotoxicity; Cells in G1 phase (M-HeLa cell lines; 50 µM): 81.4%; Cells in G1 phase (M-HeLa cell lines; 100 µM): 83.8%
